Measurements from US8993768B2, “Tropolone compounds for treating or preventing retroviral infection” (The United States of America, as represented by the …, priority 2011, dated 2015).
Like-named read-outs stand apart in the source and are kept apart here.

Assays:
[1] = target: T1, p66^DA/p51 HIV-1 RT (Human immunodeficiency virus type 1 group M subtype B, UniProt P04585, D1136A); assay: DNA-dependent DNA polymerase assay, RNase H-deficient mutant p66DA/p51; assay type: biochemical; settings: 20 μM
T1 construct: RT is a p66/p51 heterodimer comprised of asymmetrically-organized subunits processed from the 165 kDa gag/pol polyprotein precursor; (His)6; made in house; host or cells: Escherichia coli
Method: (§1) DNA-dependent DNA synthesis was measured on a fluorescently-labeled duplex DNA prepared by annealing a 33-nt template, 5′-CACTGCTCAAGAAGTTCCAATCCTAAATACATA-3′ (SEQ ID NO: 3), to the 5′-Cy5-labeled primer 5′-ATGTATGGGTATGTATTTAGG-3′ (SEQ ID NO: 4). Polymerization was initiated by adding 1 μl of 2 mM dNTPs to 9 μl of mixture containing 4 ng enzyme, 200 nM substrate, 20 μM α-hydroxytropolones in 10 mM Tris, pH 7.8, 80 mM KCl, 1 mM DTT, 10 mM MgCl2, and 10% DMSO at 37° C. DNA synthesis was quenched with 10 μl of a gel-loading buffer after 10 minutes, and reaction products were analyzed by denaturing polyacrylamide gel electrophoresis and fluorescent imaging.
(§2) In order to examine the specificity of our manicol analogs, their effect on the DNA polymerase activity of wild type p66/p51 HIV-1 RT and RNase H-deficient derivatives was determined. In particular, RNase H-deficient strains p66^EQ/p51 and p66^DA/p51, were tested, which harbor mutations in one of the catalytically-critical amino acids contacted by manicol (E478 and D549, respectively), that would be predicted to interfere with α-hydroxytropolone binding.
(§3) Although crystallographic evidence is presently unavailable, compounds 5 and 10, thus appear capable of occupying a second site on HIV-1 RT.

[2] = target: T2, p66^EQ/p51 HIV-1 RT (Human immunodeficiency virus type 1 group M subtype B, UniProt P04585, E1065Q); assay: DNA-dependent DNA polymerase assay, RNase H-deficient mutant p66EQ/p51; assay type: biochemical; settings: 20 μM
T2 construct: RT is a p66/p51 heterodimer comprised of asymmetrically-organized subunits processed from the 165 kDa gag/pol polyprotein precursor; (His)6; made in house; host or cells: Escherichia coli
Method: as §1, §2, §3

[3] = target: T3, HIV-1 RT RNase H (Human immunodeficiency virus type 1 group M subtype B, UniProt P04585); assay: Cleavage of the HIV-1 polypurine tract (PPT) primer, PPT/U3 junction; assay type: biochemical; settings: 20 μM inhibitor
T3 construct: RT is a p66/p51 heterodimer comprised of asymmetrically-organized subunits processed from the 165 kDa gag/pol polyprotein precursor; (His)6; made in house; host or cells: Escherichia coli
Method: FIG. 2A depicts a schematic model of RNA/DNA substrate, indicating the RNase H cleavage site at the PPT/U3 junction (< >). The PPT is indicated by the shaded box. FIG. 2B depicts the quantification of PPT cleavage data. All inhibitors were evaluated at 20 μM.
(§4) IC50 values were determined as previously reported (Budihas, S. R., et al., Nucleic Acids Res., 33(4):1249-56 (2005)), using an 18-nucleotide 3′-flourescein-labeled RNA annealed to a complementary 18-nucleotide 5′-dabsyl-labeled DNA. […] The reaction was initiated by adding 1 μl of 100 mM MgCl2 to 9 μl of mixture containing 4 ng enzyme, 200 nM substrate, 20 μM α-hydroxytropolones in 50 mM Tris, pH 8.0, 80 mM KCl, 2 mM DTT, and 10% DMSO at 37° C., and quenched with 10 μl of a gel-loading buffer after 10 minutes. Hydrolysis products were fractionated by denaturing polyacrylamide gel electrophoresis and visualized by fluorescent imaging (Typhoon Trio+, GE Healthcare, Piscataway, N.J.).
Since the high-throughput RNase H assay examines non-specific, “polymerase-independent” RNase H activity defined by the spatial separation of the DNA polymerase and RNase H active site of HIV-1 RT (Gopalakrishnan, V., et al., Proc. Natl. Acad. Sci. USA, 89(22):10763-7 (1992)), an examination of whether α-hydroxytropolones altered cleavage specificity on a more biologically-relevant substrate, namely the polypurine tract (PPT) primer, which must be processed from the RNA/DNA replication intermediate to initiate (+) strand DNA synthesis.

[4] = target: T4, HIV-1 RNase H (p66/p51 HIV-1 RT) (Human immunodeficiency virus type 1 group M subtype B, UniProt P04585); assay: High throughput RNase H assay on sequence-independent RNA/DNA hybrid; assay type: biochemical; settings: HIV-1 RNase H enzymatic activity, sequence-independent RNA/DNA hybrid; read-out: In vitro IC50
T4 construct: RT is a p66/p51 heterodimer comprised of asymmetrically-organized subunits processed from the 165 kDa gag/pol polyprotein precursor; (His)6; made in house; host or cells: Escherichia coli
Method: as §4, with “N.J.). […]” for “N.J.).”

[5] = system: HIV-1 virus strain RF in CEM-SS cells; assay: HIV-1 cytopathicity assay; assay type: cell-based; settings: for EC50: read-out: Virus Replication EC50
Method: This assay was conducted as previously reported (Weislow, O, S., et al., J. Natl. Cancer Inst., 81(8):577-86 (1989)). Samples were dissolved in DMSO at 10 mM and diluted to a final high concentration of 50 μM in the 96-well assay plate, with 2-fold dilutions made to a low concentration of about 0.78 μM. All samples were tested in duplicate. The HIV-1 virus strain RF was used to infect CEM-SS cells. Compound cytotoxicity was measured in the same assay plate using uninfected cells. Regression analysis was used to estimate the effective concentration (EC50) as well as the cytotoxic concentration (CC50).

[6] = Compound cytotoxicity in uninfected cells (same assay plate); assay type: cell-based; settings: human, uninfected CEM-SS cells; read-out: Virus Replication CC50
Method: (§5) All samples were tested in duplicate. The HIV-1 virus strain RF was used to infect CEM-SS cells. Compound cytotoxicity was measured in the same assay plate using uninfected cells. Regression analysis was used to estimate the effective concentration (EC50) as well as the cytotoxic concentration (CC50).

[7] = system: uninfected CEM-SS cells; assay: as above; assay type: cell-based
Method: as §5

[8] = system: HIV-1 virus strain RF in CEM-SS cells; settings: background, previous finding; cited from earlier work
[9] = target: T4, HIV-1 RNase H (p66/p51 HIV-1 RT); settings: background, previously demonstrated; cited from earlier work

SMILES	effect on DNA-dependent DNA polymerase activity [1]	effect on DNA-dependent DNA polymerase activity [2]	inhibition of PPT/U3 cleavage (in words) [3]	IC50 [4] [µM]	protection against the cytopathic effect of the virus (in words) ([5]; HIV-1 RF)	EC50 ([5]; Human immunodeficiency virus 1, CEM-SS, HIV-1 RF) [µM]	CC50 [6] [µM]	EC50 ([5]; HIV-1 RF) [µM]	CC50 [7] [µM]	reduction of virus replication in culture [8]	inhibition of RNase H activity of HIV RT in vitro [9]	EC50 ([5]; Human immunodeficiency virus 1, HIV-1 RF) [µM]
Cc1cc(O)c(=O)c(O)c2c1CC(C(C)(O)CNc1ccccc1)CC2 (mixture of isomers) [Compound 5, 5,7-Dihydroxy-2-(1-hydroxy-1-methyl-2-phenylamino-ethyl)-9-methyl-1,2,3,4-tetrahydrobenzocyclohepten-6-one]	significantly and consistently inhibited	significantly and consistently inhibited	more active in blocking PPT/U3 cleavage	1.2	showed protection	7.4	31.7	–	–	–	–	–
Cc1cc(O)c(=O)c(O)c2c1CC(C(C)(O)C[S+]([O-])Cc1ccccc1)CC2 (stereo not shown) [Compound 10, 2-(2-Benzylsulfinyl-1-hydroxy-1-methyl-ethyl)-5,7-dihydroxy-9-methyl-1,2,3,4-tetrahydrobenzocyclohepten-6-one]	significantly and consistently inhibited	significantly and consistently inhibited	less active	1.5	showed protection	–	–	14.5	> 50	–	–	–
C=C(C)[C@H]1CCc2c(c(C)cc(O)c(=O)c2O)C1 [Manicol, 5,7-dihydroxy-2-isopropenyl-9-methyl-1,2,3,4-tetrahydro-benzocyclohepten-6-one, reference compound]	–	–	–	–	no protection	–	13.6	–	–	ineffective	potently and specifically inhibit	13.6
